Laboratory results from publication PMC9740829, “Salvianolic Acid B Strikes Back: New Evidence in the Modulation of Expression and Activity of Matrix Metalloproteinase 9 in MDA-MB-231 Human Breast Cancer Cells” (Molecules, 2022).

Molecular target: T1, matrix metalloproteinase 9 (MMP-9) (Homo sapiens, UniProt P14780)
T1 construct: gene MMP9; recombinant catalytic domain of MMP-9 (CDMMP-9), 39 kDa, aa 107–457 + NT His Tag
Assay: fluorometric inhibition assay with self-quenched peptide substrate; double reciprocal and secondary plots
Format: biochemical
Source text: fluorometric inhibition assay with self-quenched peptide substrate; double reciprocal and secondary plots on matrix metalloproteinase 9 (MMP-9) | competitive inhibition of the activity performed by the MMP-9 catalytic domain (CDMMP-9) (Figure 3A), and allowed to define a Ki

T1 sequence (P14780 107-457): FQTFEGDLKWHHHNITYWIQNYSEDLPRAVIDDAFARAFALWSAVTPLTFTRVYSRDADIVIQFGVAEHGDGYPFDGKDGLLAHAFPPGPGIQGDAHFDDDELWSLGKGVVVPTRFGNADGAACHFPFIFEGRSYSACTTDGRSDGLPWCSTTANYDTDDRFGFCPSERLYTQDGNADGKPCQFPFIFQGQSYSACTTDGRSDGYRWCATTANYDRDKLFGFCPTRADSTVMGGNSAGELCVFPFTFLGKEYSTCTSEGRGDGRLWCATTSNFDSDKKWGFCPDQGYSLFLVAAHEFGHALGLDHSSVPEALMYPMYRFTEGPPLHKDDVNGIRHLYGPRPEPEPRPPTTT

With `O=C(/C=C/c1ccc(O)c2c1[C@H](C(=O)O[C@H](Cc1ccc(O)c(O)c1)C(=O)O)[C@@H](c1ccc(O)c(O)c1)O2)O[C@H](Cc1ccc(O)c(O)c1)C(=O)O` [SalB, Salvianolic acid B] the Ki was 57.4 ± 3.96 µM.
